Measurements from patent US20250320471A1, “Method for Producing Compounds, Method for Producing Compound Library, Compound Library, and Screening Method” (The University of Tokyo, priority 2021, published 2025).
Values joined by “and” are separate entries in the source; they are usually repeats but may differ in a detail not shown here. Equal entries are not always repeated. Peptide text beside a SMILES is read from it.

Tests used:
Vib-PT = settings: Aromatic C5 O-prenylation; cited from earlier work
FtmPT2 = target: T1, FtmPT2 (Aspergillus fumigatus, UniProt Q4WAX1); settings: Aromatic C5 N-prenylation; cited from earlier work
T1 sequence (Q4WAX1 1-427): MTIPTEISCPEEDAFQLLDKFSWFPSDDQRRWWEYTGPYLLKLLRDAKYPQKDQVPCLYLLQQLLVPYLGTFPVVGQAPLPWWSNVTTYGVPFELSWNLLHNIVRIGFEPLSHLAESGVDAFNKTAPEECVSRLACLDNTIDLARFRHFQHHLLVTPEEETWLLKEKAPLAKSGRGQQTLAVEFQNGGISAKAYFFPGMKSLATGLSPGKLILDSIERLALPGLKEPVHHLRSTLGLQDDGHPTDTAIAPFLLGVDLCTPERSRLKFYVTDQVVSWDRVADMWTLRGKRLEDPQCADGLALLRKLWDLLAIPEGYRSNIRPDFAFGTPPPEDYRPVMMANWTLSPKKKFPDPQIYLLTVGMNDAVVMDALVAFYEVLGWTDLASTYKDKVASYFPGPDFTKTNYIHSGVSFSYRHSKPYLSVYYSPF

LimF [1] = assay: LimF prenylation of His monomers and His-containing dipeptides; assay type: biochemical, Limnothrix sp. CACIAM 69d; settings: prenyl group donor GPP; 100 μM LimF, 20 hours
Description: The optimization conditions were as follows: 1 mM GPP, 40 mM MgCl2, 1 mM dithiothreitol (DTT), pH 7.2, and reaction temperature 25° C. The reaction conditions described above were used below except where otherwise stated.
• A reaction was performed for 20 hours with 100 μM LimF.
Furthermore, when a prenylation reaction facilitated by 20 μM LimF was applied not only to Ac-AH-NH2, but also to various His-containing dipeptides, it became clear that a His prenylation reaction facilitated by LimF progressed for various His-containing dipeptides (FIG. 6).

LimF [2] = assay: Initial evaluation of LimF with estimated substrates bcLimE1-3 (LC-MS); assay type: biochemical, Limnothrix sp. CACIAM 69d; settings: for geranylation by LimF (LC-MS): 20 μM LimF, 20 μM peptide, 2 mM geranyl pyrophosphate, 20 mM MgCl2, pH 7.5, 37° C., 12 hours
Description: In order to examine the enzymatic activity of LimF, LimF was heterologously-expressed in Escherichia coli using the method described above and incubated with chemically synthesized bcLimE1, bcLimE2 or bcLimE3 in the presence of MgCl2 and a prenyl group donor (geranyl pyrophosphate (GPP)). The reaction conditions were as described below.
First, the same experiment as described above was performed using farnesyl pyrophosphate instead of geranyl pyrophosphate as a prenyl group donor. As a result, a trace amount of farnesylated bcLimE2 was generated, although at a lower efficiency than when GPP was used.
The initial evaluation of LimF using estimated substrates (bcLimE1, bcLimE2, and bcLimE3) was performed as follows. An enzymatic reaction was performed for 12 hours at 37° C. under the conditions of LimF (20 μM), peptide substrate (20 μM), prenyl group donor (geranyl pyrophosphate or farnesyl pyrophosphate) (2 mM), HEPES (50 mM, pH 7.5), MgCl2 (20 mM), and DTT (1 mM). After reacting the substrates bcLimE1, bcLimE2, and bcLimE3 for 12 hours at 37° C., respectively, nine times the amount of 1% TFA was added and centrifuged at 4° C. (15300×g, 10 minutes), and a supernatant was recovered. 10 μL of the obtained supernatant was subjected to LC-MS analysis.

LimF [3] = assay: Steady-state kinetics of prenylation facilitated by LimF (wild type); assay type: biochemical, Limnothrix sp. CACIAM 69d; settings: His-prenylation (C10), 1 mM GPP, 40 mM MgCl2, pH 7.2, 25° C.
Description: Under optimal conditions, the steady-state kinetic parameters of the prenylation reaction of bcLimE2 facilitated by LimF were measured by the methods described below.
The concentration dependence of GPP and MgCl2 in bcLimE2 prenylation reactions facilitated by LimF was measured in reaction systems containing 1 μM LimF, 1 mM or a suitably modified concentration of GPP, 50 mM HEPES pH 7.2, 0.4 mM substrate, 1 mM DTT, and 40 mM or a suitably modified concentration of MgCl2. A reaction solution containing components other than GPP was prepared and preheated to 25° C., and the reaction was then started by adding GPP. After incubating at 25° C., the reaction was stopped at each point and analyzed by LC-MS. Next, the initial rate was calculated as the slope of increase in the amount of prenylation product produced in the linear region. Three separate reactions were carried out under each condition and the mean and standard deviation of the results were used for the analysis.
For GPP concentration dependence and peptide substrate concentration dependence, the kinetic parameters were estimated by fitting the initial rate and GPP substrate concentration or peptide substrate concentration to the Michaelis-Menten model in Graphpad Prism 8.4.2 (GraphPad Prism Software Inc., San Diego, California) software.
Kinetic parameters of the His-prenylation reaction facilitated by LimF were determined based on reactions under optimal conditions using substrates of different concentrations. For the Tyr-prenylation described below, the kinetic parameters were measured under the same conditions except that LimF was set to 5 μM and the reaction temperature was set to 16° C. In order to estimate the kinetic parameters, the initial rate and substrate concentration were fitted to the Michaelis-Menten model in Graphpad Prism 8.4.2 software.
In order to further evaluate the two different prenylation modes by LimF, two teMPs (teR6-H5A/Y7H and teR6-H5A) that undergo efficient His-prenylation and Tyr-prenylation, respectively, were designed and chemically synthesized. Kinetic analysis was carried out according to the above method using these peptides.

LimF [4] = assay: FIT-LimF system: one-pot in vitro expression and prenylation of teMPs; assay type: biochemical, Limnothrix sp. CACIAM 69d; settings: 16 hours; for Modification Efficiency % (Tyr prenylation): FIT-LimF system, 20 μM LimF
From the text: First, teMP (teLimE2) mimicking the sequence of bcLimE2 was designed and expressed by genetic code reprogramming using customized cell-free translation, and the so-called flexible in vitro translation (FIT) system (Goto, Y, Katoh, T. & Suga, Flexizymes for genetic code reprogramming. Nat. Protoc., 6, 779-790 (2011)). Specifically, the AUG start codon was reprogrammed with N-chloroacetyl-D-phenylalanine (^ClAcD-F), a linear precursor having a chloroacetyl group (ClAc group) at the N-terminal was expressed, and a thioether bond was formed by a spontaneous ring-closing SN2 reaction with a downstream Cys thiol (FIG. 7a). Note that the FIT system had the composition described below.
teLimE2 expressed in vitro was incubated for 16 hours at 25° C. in the presence of 100 μM LimF and analyzed by LC-MS. […] The in vitro translation system conjugated with LimF will be referred to hereinafter as the FIT-LimF system.
38 types of teLimE2 variants in which the His-1 and His+1 positions were substituted with 19 types of proteinogenic amino acid other than Cys were designed and then expressed and modified in the FIT-LimF system. The reaction results were analyzed by LC-MS. In the present experiment, the prenylation process was performed under intentionally poor modification efficiency conditions by using a low LimF concentration (10 μM). This allowed for more accurate investigation of the influence of His−1 and His+1 amino acids.
The following series of experiments examined whether teMPs of various ring sizes were tolerated by LimF. Thirteen teMP variants with different ring sizes (4 to 18 residues) and a preferred local sequence motif (Ser-His-Ala/Cys) were designed.
Next, it was shown that LimF can modify teMPs having a variety of random sequences. Five teMPs composed of random sequences were expressed and modified using the FIT-LimF system (LimF concentration: 10 μM) (FIG. 7e). […]
Target sequence in this assay (as listed by the source): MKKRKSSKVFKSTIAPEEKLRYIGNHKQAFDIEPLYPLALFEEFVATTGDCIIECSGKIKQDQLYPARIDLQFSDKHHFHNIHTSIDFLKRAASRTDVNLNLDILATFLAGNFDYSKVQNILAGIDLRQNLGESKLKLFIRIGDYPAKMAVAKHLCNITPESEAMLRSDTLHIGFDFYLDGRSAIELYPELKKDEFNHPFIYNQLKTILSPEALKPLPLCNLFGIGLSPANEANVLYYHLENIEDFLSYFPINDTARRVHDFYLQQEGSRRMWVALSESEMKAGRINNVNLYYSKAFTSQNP

GLP1R = target: T2, GLP1R (Homo sapiens, UniProt P43220); assay: cAMP production activation test (cAMP Hunter eXpress GLP1R CHO-K1 GPCR assay kit); assay type: cell-based; settings: GLP1R CHO-K1 cells
T2 construct: host or cells: CHO-K1
Description: The concentration range of the used peptides was from 0.33 μM to 20 nM.

LynF = settings: Tyr C5 O-prenylation; cited from earlier work
PagF = settings: Tyr C5 O-prenylation; cited from earlier work
AcyF = settings: Trp C5 N-prenylation; cited from earlier work

T2 sequence (P43220 24-463): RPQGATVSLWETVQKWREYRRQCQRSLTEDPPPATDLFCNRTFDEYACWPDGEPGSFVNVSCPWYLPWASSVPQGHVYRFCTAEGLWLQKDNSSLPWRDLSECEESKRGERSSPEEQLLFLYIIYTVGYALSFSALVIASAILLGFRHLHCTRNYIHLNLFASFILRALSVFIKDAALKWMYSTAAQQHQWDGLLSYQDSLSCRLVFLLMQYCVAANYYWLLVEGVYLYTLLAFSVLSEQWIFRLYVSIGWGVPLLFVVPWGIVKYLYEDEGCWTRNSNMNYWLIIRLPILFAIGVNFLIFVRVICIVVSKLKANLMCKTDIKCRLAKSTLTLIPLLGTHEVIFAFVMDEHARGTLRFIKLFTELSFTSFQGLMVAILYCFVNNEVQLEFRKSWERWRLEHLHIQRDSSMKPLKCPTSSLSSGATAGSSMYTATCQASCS

In the case of `OCc1ccc(O)cc1` [4-hydroxy-benzenemethanol], the Kcat (Vib-PT) is listed as 0.000783 s⁻¹ and the Km (Vib-PT) is listed as 2050 µM.

In the case of `COc1ccc2c3c([nH]c2c1)[C@H](C=C(C)C)N1C(=O)[C@@H]2CCCN2C(=O)[C@]1(O)[C@H]3O` [12,13-dihydroxyfumitremorgin C], the Kcat (FtmPT2) is listed as 0.03 s⁻¹ and the Km (FtmPT2) is listed as 96 µM.

For `O=C(N[C@@H](Cc1cnc[nH]1)C(=O)O)OCC1c2ccccc2-c2ccccc21` [Fmoc-His, Fmoc-His-OH], the “Modification Efficiency %” value (LimF [1]) was 15.2 ± 0.8%.

For `N[C@@H](Cc1c[nH]cn1)C(=O)O` [Free His, H-His-OH], the “Modification Efficiency %” value (LimF [1]) was 34.9 ± 0.7%.

For `CCC(C)C1NC(=O)C(CCC(=O)O)NC(=O)C(CCC(=O)O)NC(=O)C(Cc2c[nH]cn2)NC(=O)C2CCCN2C(=O)C(Cc2ccc(O)cc2)NC(=O)C(CCCNC(=N)N)NC(=O)C2CCCN2C1=O` (centres unmarked) [bcLimE2] (cyclo(EEIPRYPH); configuration not given here), the “geranylation by LimF (LC-MS)” value (LimF [2]) was “quantitatively converted”, the “farnesylation by LimF” value (LimF [2]; farnesyl pyrophosphate instead of GPP as prenyl group donor, otherwise as geranylation test) was “trace amount” and the Kcat (LimF [3]) was 0.23 ± 0.01 s⁻¹. For the same compound, the Km (LimF [3]) was 313 µM and 310 µM and the Kcat (LimF [3]; listed as cyclo[RYPHEEIP]) was 0.23 s⁻¹.

In the case of `CCC(C)C1NC(=O)C(CC(N)=O)NC(=O)C(C(C)O)NC(=O)C(C(C)CC)NC(=O)C2CCCN2C(=O)C(CC(=O)O)NC(=O)C(Cc2ccc(O)cc2)NC(=O)C(Cc2ccccc2)NC1=O` (centres unmarked) [bcLimE3] (cyclo(DPITNIFY); configuration not given here), the “geranylation by LimF (LC-MS)” value (LimF [2]) is reported as “not subjected to geranylation”.

With Ac-AH-NH2 [Ac—AH—NH2] the “Modification Efficiency %” value (LimF [1]) was >99%.

In the case of DHis, the “prenylation by LimF in FIT-LimF system” value (LimF [4]; 100 μM LimF, 25° C., LC-MS) is reported as “favorable substrates”.

For “FAEGTFTSDVSSYLEGGAAKEFIAWLVHGR [GLP-1_H7F/K34H]”, the “cAMP production activation ability” value (GLP1R) was “activity comparable to that of natural GLP-1”.

For cyclo[APMPPYP] (head-to-tail cyclized), the Kcat (LynF) is listed as 0.00367 s⁻¹ and the Km (LynF) is listed as 4200 µM.

For cyclo[INPYLYP] (head-to-tail cyclized), the Kcat (PagF) is listed as 0.123 s⁻¹ and the Km (PagF) is listed as 0.22 µM.

For “cyclo[TSQIWGSPVP] (head-to-tail cyclized)”, the Kcat (AcyF) is given as 0.158 s⁻¹ and the Km (AcyF) is given as 3320 µM.

In the case of “tecyclo [y I T N I A Y D P C] (ITNIAYDPC; not fully specified; cyclized with D-Tyr)”, the “Modification Efficiency % (Tyr prenylation)” value (LimF [4]) is reported as 1%.

For “tecyclo [y I T N I T Y D P C] (ITNITYDPC; not fully specified; cyclized with D-Tyr)”, the “Modification Efficiency % (Tyr prenylation)” value (LimF [4]) was 21%.
